This is an account of results in patent US10738057B2, “Tertiary alcohols as PI3K-γ inhibitors” (Incyte Corporation, priority 2017, dated 2020).

Assay [1] addresses PI3Kγ (p110γ) Recombinant Human Protein (Homo sapiens (Human), UniProt P48736). Nature of the assay: PI3K-γ scintillation proximity assay. Format: biochemical. The note with it: 20 μM PIP2, 2 μM ATP, 13 nM PI3Kγ, 120 min, room temperature. An excerpt:
Example B. PI3K-γ Scintillation Proximity Assay
[γ-^33P]ATP (10 mCi/mL) and Wheat Germ Agglutinin (WGA) YSi SPA Scintillation Beads was purchased from PerkinElmer (Waltham, Mass.). Lipid kinase substrate, D-myo-Phosphatidylinositol 4,5-bisphosphate (PtdIns(4,5)P2)D (+)-sn-1,2-di-O-octanoylglyceryl, 3-O-phospho linked (PIP2), CAS 204858-53-7, was purchased from Echelon Biosciences (Salt Lake City, Utah). PI3Kγ (p110γ) Recombinant Human Protein was purchased from Life technology (Grand Island, N.Y.). ATP, MgCl2, DTT, EDTA, MOPS and CHAPS were purchased from SigmaAldrich (St. Louis, Mo.).
(§1) The kinase reaction was conducted in polystyrene 384-well Greiner Bio-one white plate from Thermo Fisher Scientific in a final volume of 25 μL. Inhibitors were first diluted serially in DMSO and added to the plate wells before the addition of other reaction components. The final concentration of DMSO in the assay was 2%. The PI3Kγ assay was carried out at room temperature in 20 mM MOPS, pH 6.7, 10 mM MgCl2, 5 mM DTT and CHAPS 0.03%. Reactions were initiated by the addition of ATP, the final reaction mixture consisted of 20 μM PIP2, 2 μM ATP, 0.5 μCi [γ-^33P] ATP, 13 nM PI3Kγ. Reactions were incubated for 120 min and terminated by the addition of 40 μL SPA beads suspended in quench buffer: 163 mM potassium phosphate pH 7.8, 20% glycerol, 25 mM EDTA. The final concentration of SPA beads is 1.0 mg/mL. After the plate sealing, plates were shaken overnight at room temperature and centrifuged at 1500 rpm for 10 min, the radioactivity of the product was determined by scintillation counting on Topcount (Perkin-Elmer). IC50 determination was performed by fitting the curve of percent of the solvent control activity versus the log of the inhibitor concentration using the GraphPad Prism 6.0 software.
On the technique in general: Scintillation proximity formats need no separation of bound from free tracer.

Assay [2] deals with PI3Kδ (p110δ/p85α) Recombinant Human Protein (Homo sapiens (Human), UniProt O00329). The assay can be described thus: PI3Kδ scintillation proximity assay. The format is biochemical. The note with it: 20 μM PIP2, 2 μM ATP, 3.4 nM PI3Kδ, 120 min, room temperature; read-out: PI3Kδ IC50. How it is done: PI3Kδ Scintillation Proximity Assay
[γ-^33P]ATP (10 mCi/mL) and Wheat Germ Agglutinin (WGA) YSi SPA Scintillation Beads was purchased from PerkinElmer (Waltham, Mass.). […] PI3Kδ (p110δ/p85α) Recombinant Human Protein was purchased from Eurofins (St Charles, Mo.). ATP, MgCl2, DTT, EDTA, MOPS and CHAPS were purchased from SigmaAldrich (St. Louis, Mo.).
as §1, with “PI3Kδ” for “PI3Kγ”, “ATP, 13 nM PI3Kγ. Reactions were incubated for 120 min and terminated by the addition of 40 μL SPA beads suspended in quench buffer: 163 mM potassium phosphate pH 7.8, 20% glycerol, 25 mM EDTA.” left out, “(PerkinElmer).” for “(Perkin-Elmer).”

pIC50: −log10 of the molar value. Counter-ions that a name gives are not always drawn. Where only a bound is given, the exact number is not on record here.

Sequence of PI3Kγ (p110γ) Recombinant Human Protein (P48736 whole entry): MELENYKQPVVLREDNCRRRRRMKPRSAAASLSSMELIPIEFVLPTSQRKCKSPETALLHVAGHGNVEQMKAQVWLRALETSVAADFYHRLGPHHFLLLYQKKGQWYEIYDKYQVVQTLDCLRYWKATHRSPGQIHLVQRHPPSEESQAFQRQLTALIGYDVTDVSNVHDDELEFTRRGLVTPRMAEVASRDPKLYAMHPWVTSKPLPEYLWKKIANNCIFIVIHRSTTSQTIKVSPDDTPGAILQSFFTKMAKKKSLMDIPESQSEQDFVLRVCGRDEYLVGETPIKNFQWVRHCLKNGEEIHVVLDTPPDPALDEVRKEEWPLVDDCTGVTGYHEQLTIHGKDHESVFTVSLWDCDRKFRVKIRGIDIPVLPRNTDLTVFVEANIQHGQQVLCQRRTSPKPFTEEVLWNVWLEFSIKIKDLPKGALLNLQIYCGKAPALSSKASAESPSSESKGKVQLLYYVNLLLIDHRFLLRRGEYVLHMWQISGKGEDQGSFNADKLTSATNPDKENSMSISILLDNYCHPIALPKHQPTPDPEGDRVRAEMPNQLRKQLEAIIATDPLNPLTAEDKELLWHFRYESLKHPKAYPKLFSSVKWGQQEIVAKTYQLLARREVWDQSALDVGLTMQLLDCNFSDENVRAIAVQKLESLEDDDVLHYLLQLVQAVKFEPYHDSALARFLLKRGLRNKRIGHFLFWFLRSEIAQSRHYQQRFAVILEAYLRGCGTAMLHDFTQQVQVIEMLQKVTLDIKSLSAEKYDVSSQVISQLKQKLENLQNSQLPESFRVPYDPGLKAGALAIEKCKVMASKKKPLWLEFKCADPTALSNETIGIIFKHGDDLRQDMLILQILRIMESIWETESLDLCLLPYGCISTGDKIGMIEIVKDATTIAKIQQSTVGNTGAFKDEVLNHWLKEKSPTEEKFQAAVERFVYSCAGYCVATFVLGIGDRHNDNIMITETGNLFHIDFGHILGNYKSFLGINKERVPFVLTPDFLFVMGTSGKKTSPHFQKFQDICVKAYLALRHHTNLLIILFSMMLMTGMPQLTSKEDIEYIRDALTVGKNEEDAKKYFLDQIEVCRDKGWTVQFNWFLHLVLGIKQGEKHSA
Sequence of PI3Kδ (p110δ/p85α) Recombinant Human Protein (O00329 whole entry): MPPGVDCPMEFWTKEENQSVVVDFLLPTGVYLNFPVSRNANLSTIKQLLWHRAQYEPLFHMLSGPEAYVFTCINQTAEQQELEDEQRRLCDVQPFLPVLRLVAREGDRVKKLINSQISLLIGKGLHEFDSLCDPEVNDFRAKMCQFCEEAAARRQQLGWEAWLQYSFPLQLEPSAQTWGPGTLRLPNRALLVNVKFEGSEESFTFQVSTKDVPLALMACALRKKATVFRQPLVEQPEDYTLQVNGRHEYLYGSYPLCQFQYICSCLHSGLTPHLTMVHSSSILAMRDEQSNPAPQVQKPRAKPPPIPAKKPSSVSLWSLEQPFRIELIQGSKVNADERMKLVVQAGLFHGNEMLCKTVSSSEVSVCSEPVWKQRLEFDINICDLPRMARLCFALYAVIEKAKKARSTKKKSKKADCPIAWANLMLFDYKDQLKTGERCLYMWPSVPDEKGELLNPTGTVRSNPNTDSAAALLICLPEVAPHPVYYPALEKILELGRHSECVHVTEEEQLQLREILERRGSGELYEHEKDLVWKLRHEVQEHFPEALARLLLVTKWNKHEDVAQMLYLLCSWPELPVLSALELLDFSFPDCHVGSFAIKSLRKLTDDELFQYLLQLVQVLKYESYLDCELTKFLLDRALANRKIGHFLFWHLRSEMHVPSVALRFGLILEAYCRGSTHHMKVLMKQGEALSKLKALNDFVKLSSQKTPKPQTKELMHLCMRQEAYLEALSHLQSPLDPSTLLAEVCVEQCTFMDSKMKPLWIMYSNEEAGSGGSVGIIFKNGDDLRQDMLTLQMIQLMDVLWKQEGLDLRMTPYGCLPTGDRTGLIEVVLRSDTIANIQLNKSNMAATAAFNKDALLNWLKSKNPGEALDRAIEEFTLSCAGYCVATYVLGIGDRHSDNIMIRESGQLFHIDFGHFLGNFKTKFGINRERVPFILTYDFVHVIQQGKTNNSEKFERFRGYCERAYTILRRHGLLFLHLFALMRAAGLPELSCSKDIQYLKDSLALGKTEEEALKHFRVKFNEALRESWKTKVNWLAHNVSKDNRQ
Sequence of PI3Kδ (p110δ/p85α) Recombinant Human Protein (P27986 whole entry partner): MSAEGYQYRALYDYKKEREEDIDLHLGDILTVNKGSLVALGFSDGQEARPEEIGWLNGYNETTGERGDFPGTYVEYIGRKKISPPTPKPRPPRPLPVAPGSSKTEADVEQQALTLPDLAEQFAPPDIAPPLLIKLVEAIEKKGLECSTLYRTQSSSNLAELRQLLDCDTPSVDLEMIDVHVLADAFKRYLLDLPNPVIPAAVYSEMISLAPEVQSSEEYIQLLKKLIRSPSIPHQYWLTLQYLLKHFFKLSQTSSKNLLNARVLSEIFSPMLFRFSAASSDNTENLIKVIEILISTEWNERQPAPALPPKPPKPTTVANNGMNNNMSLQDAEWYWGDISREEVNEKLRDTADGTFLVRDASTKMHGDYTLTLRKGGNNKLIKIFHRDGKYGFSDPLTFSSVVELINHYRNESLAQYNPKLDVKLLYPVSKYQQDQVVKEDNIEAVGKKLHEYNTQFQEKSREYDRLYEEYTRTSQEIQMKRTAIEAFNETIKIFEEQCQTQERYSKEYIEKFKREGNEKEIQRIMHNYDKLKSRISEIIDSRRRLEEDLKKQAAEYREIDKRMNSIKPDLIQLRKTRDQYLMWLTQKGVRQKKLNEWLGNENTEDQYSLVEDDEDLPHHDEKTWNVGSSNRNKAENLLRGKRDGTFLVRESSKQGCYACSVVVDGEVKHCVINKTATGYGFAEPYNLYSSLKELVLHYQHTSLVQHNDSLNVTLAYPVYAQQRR

Usually pIC50 stands for −log10 of the IC50, conventionally taken in molar units. Turning to `CC(O)(c1cc(-c2cnc3c(N)nc(C(F)(F)F)cn23)c2ccn(S(=O)(=O)c3ccccc3)c2c1)C(F)(F)F` (racemic) [Example 224, 2-(4-(8-Amino-6-(trifluoromethyl)imidazo[1,2-a]pyrazin-3-yl)-1-(phenylsulfonyl)-1H-indol-6-yl)-1,1,1-trifluoropropan-2-ol], the figures for the pIC50 in assay [1] and in assay [2] were 6.30 to 7.00 and 5.70 to 6.30, respectively.
For `[2H]C([2H])([2H])c1ccc(C(O)(C(C)(C)O)C(F)(F)F)cc1-c1cnc2c(N)nc(C(F)(F)F)cn12` (racemic) [Example 235, 2-(3-(8-Amino-6-(trifluoromethyl)imidazo[1,2-a]pyrazin-3-yl)-4-(methyl-d3)phenyl)-1,1,1-trifluoro-3-methylbutane-2,3-diol trifluoroacetate salt], the results for the pIC50 in assay [1] and in assay [2] were over 7.00 and 6.30 to 7.00, respectively.
The matching figures for `Cc1ccc(C(C)(O)C(F)(F)C(F)(F)F)cc1-c1cnc2c(N)nc(C(F)(F)F)cn12` (single isomer, unassigned) [Example 59, 2-(3-(8-Amino-6-(trifluoromethyl)imidazo[1,2-a]pyrazin-3-yl)-4-methylphenyl)-3,3,4,4,4-pentafluorobutan-2-ol]: over 7.00 and 5.70 to 6.30.
The matching figures for `Cc1ccc(C(C)(O)C(F)(F)F)cc1-c1cnc2c(N)nc(C(=O)NCC(C)(C)O)cn12` (single isomer, unassigned) [Example 62, 8-amino-N-(2-hydroxy-2-methylpropyl)-3-(2-methyl-5-(1,1,1-trifluoro-2-hydroxypropan-2-yl)phenyl)imidazo[1,2-a]pyrazine-6-carboxamide]: over 7.00 and 6.30 to 7.00.
Take `[2H]C([2H])([2H])n1nccc1-c1cn2c(-c3cc(C(O)(CO)C(F)(F)F)ccc3C)cnc2c(N)n1` (single isomer, unassigned) [Example 67, 2-(3-(8-Amino-6-(1-(methyl-d3)-1H-pyrazol-5-yl)imidazo[1,2-a]pyrazin-3-yl)-4-methylphenyl)-3,3,3-trifluoropropane-1,2-diol trifluoroacetate salt]: the pIC50 in assay [1] was over 7.00; in assay [2], 6.30 to 7.00.
For `CCOC(=O)C1CC1c1cn2c(-c3cc(C(C)(O)C(F)F)ccc3C)cnc2c(N)n1` (single isomer, unassigned) [Example 74, Ethyl 2-(8-amino-3-(5-(1,1-difluoro-2-hydroxypropan-2-yl)-2-methylphenyl)imidazo[1,2-a]pyrazin-6-yl)cyclopropane-1-carboxylate trifluoroacetate salt], in that order: 5.70 to 6.30 and 5.70 to 6.30.
As for `Cc1ccc(C(C)(O)C(F)F)cc1-c1cnc2c(N)nc(C3CC3CO)cn12` (single isomer, unassigned) [Example 80, 2-(3-(8-Amino-6-(2-(hydroxymethyl)cyclopropyl)imidazo[1,2-a]pyrazin-3-yl)-4-methylphenyl)-1,1-difluoropropan-2-ol], the results for the pIC50 in assay [1] and in assay [2] were over 7.00 and 5.70 to 6.30, respectively.
Regarding `Cc1ccc(C(C)(O)C(F)(F)F)cc1-c1cnc2c(N)ncnn12` (stereo not drawn) [Example 3, 2-(3-(4-Aminoimidazo[2,1-f][1,2,4]triazin-7-yl)-4-methylphenyl)-1,1,1-trifluoropropan-2-ol], the negative logarithm of the IC50 (pIC50) in assay [1] is over 7.00; in assay [2] it was 5.70 to 6.30.
For `Cc1cn2c(-c3cc(C(C)(O)C(F)(F)F)ccc3C)cnc2c(N)n1` (stereo not drawn) [Example 7, 2-(3-(8-Amino-6-methylimidazo[1,2-a]pyrazin-3-yl)-4-methylphenyl)-1,1,1-trifluoropropan-2-ol], in that order: over 7.00 and 6.30 to 7.00.
As to `Cc1ccc(C(O)(CCNC2CCOCC2)C(F)(F)F)cc1-c1cnc2c(N)nc(C(F)(F)F)cn12` (stereo not drawn) [Example 17, 2-(3-(8-Amino-6-(trifluoromethyl)imidazo[1,2-a]pyrazin-3-yl)-4-methylphenyl)-1,1,1-trifluoro-4-((tetrahydro-2H-pyran-4-yl)amino)butan-2-ol bis(2,2,2-trifluoroacetate)], the negative-log IC50 (pIC50) in assay [1] was over 7.00; in assay [2], 5.70 to 6.30.
The matching figures for `Cc1ccc(C(C)(O)C(F)F)cc1-c1cnc2c(N)nc(-c3cncnc3)cn12` (stereo not drawn) [Example 32, 2-(3-(8-Amino-6-(pyrimidin-5-yl)imidazo[1,2-a]pyrazin-3-yl)-4-methylpheny1)-1,1-difluoropropan-2-ol]: over 7.00 and 5.70 to 6.30.
For the compound `Cc1cc(F)c(C(C)(O)C(F)(F)F)cc1-c1cnc2c(N)nc(C(F)(F)F)cn12` (stereo not drawn) [Example 53, 2-(5-(8-Amino-6-(trifluoromethyl)imidazo[1,2-a]pyrazin-3-yl)-2-fluoro-4-methylphenyl)-1,1,1-trifluoropropan-2-ol], in assay [1], the pIC50 was over 7.00.
On the same count and under the same terms, the figure for `Cc1cnc(C(C)(O)C(F)(F)F)cc1-c1cnc2c(N)nc(C(F)(F)F)cn12` (stereo not drawn) [Example 54, 2-(4-(8-Amino-6-(trifluoromethyl)imidazo[1,2-a]pyrazin-3-yl)-5-methylpyridin-2-yl)-1,1,1-trifluoropropan-2-ol] is over 7.00; for `CC(O)(c1cc(-c2cnc3c(N)nc(C(F)(F)F)cn23)ccc1F)C(F)(F)F` (stereo not drawn) [Example 55, 2-(5-(8-Amino-6-(trifluoromethyl)imidazo[1,2-a]pyrazin-3-yl)-2-fluorophenyl)-1,1,1-trifluoropropan-2-ol] it is over 7.00.
On to `CC(O)(c1cccc(-c2cnc3c(N)nc(C(F)(F)F)cn23)c1)C(F)(F)F` (stereo not drawn) [Example 56, 2-(3-(8-Amino-6-(trifluoromethyl)imidazo[1,2-a]pyrazin-3-yl)phenyl)-1,1,1-trifluoropropan-2-ol], for which the pIC50 in assay [1] was over 7.00.
For `CC(O)(c1ccc(F)c(-c2cnc3c(N)nc(C(F)(F)F)cn23)c1)C(F)(F)F` (stereo not drawn) [Example 57, 2-(3-(8-Amino-6-(trifluoromethyl)imidazo[1,2-a]pyrazin-3-yl)-4-fluorophenyl)-1,1,1-trifluoropropan-2-ol], the negative-log IC50 (pIC50) in assay [1] is over 7.00.
Still for that read-out and setting: the figure for `Cc1ncc(C(C)(O)C(F)(F)F)cc1-c1cnc2c(N)nc(C(F)(F)F)cn12` (stereo not drawn) [Example 58, 2-(5-(8-Amino-6-(trifluoromethyl)imidazo[1,2-a]pyrazin-3-yl)-6-methylpyridin-3-yl)-1,1,1-trifluoropropan-2-ol] is 6.30 to 7.00.
Take `Cc1ccc(C(C)(O)C(F)F)cc1-c1cnc2c(N)nc(N3CCC(C#N)CC3)cn12` (stereo not drawn) [Example 64, 1-(8-Amino-3-(5-(1,1-difluoro-2-hydroxypropan-2-yl)-2-methylphenyl)imidazo[1,2-a]pyrazin-6-yl)piperidine-4-carbonitrile]: the negative-log IC50 (pIC50) was over 7.00 in assay [1] and 5.70 to 6.30 in assay [2].
`Cc1ccc(C(C)(O)C(F)(F)F)cc1-c1cnc2c(N)nc(N3CCC(O)CC3)cn12` (stereo not drawn) [Example 65, 1-(8-Amino-3-(2-methyl-5-(1,1,1-trifluoro-2-hydroxypropan-2-yl)phenyl)imidazo[1,2-a]pyrazin-6-yl)piperidin-4-ol]: the pIC50 in assay [1] was over 7.00; in assay [2], 6.30 to 7.00.
On to `Cc1ccc(C(C)(O)C(F)F)cc1-c1cnc2c(N)nc(C3CC3C(=O)N3CCN(C)CC3)cn12` (stereo not drawn) [Example 77, (2-(8-Amino-3-(5-(1,1-difluoro-2-hydroxypropan-2-yl)-2-methylphenyl)imidazo[1,2-a]pyrazin-6-yl)cyclopropyl)(4-methylpiperazin-1-yl)methanone trifluoroacetate salt], for which the figures for the negative-log IC50 (pIC50) in assay [1] and in assay [2] were over 7.00 and 6.30 to 7.00, respectively.
Consider `Cc1ccc(C(C)(O)C(F)(F)F)cc1-c1cnc2c(N)nc(CC(=O)N(C)C)cn12` (stereo not drawn) [Example 169, 2-(8-amino-3-(2-methyl-5-(1,1,1-trifluoro-2-hydroxypropan-2-yl)phenyl)imidazo[1,2-a]pyrazin-6-yl)-N,N-dimethylacetamide trifluoroacetate salt], for which the pIC50 is 6.30 to 7.00 in assay [1] and 5.70 to 6.30 in assay [2].
